This is an account of results in PMC9313812, “The Pseudo‐Natural Product Rhonin Targets RHOGDI” (Angewandte Chemie (International Ed. in English), 2022).

Experiment [1] deals with T1, RHOGDI1-mediated extraction of CDC42 (Homo sapiens, UniProt P52565).
T1 construct: made in house; host or cells: RHOGDI1: E. coli; prenylated CDC42: insect cells (TNAO38)
The experiment in a line: Liposome sedimentation assay: displacement of prenylated GDP-bound CDC42 by GST-RHOGDI1. It is filed as biochemical. The following applies: 50 μM compound. Here is the method: Supplementary Figure S4. Compound 7a impairs RHOGDI1 function. (a) Assay setup for the liposome sedimentation assay. (b) Displacement of prenylated GDP‐bound RAC1 from synthetic liposomes by GST-RHOGDI1 in the presence or absence of 50 μM 7a was measured using liposome floatation assay. Data is representative of three independent experiments.
Liposome-containing phase represented by fluorescent colour as result of 5% fluorescent NDB-PE was analysed by Western blotting. Data are representatives of three independent […]
experiments. (c-d) Displacement of prenylated
GDP‐bound RHO GTPases (RHOA and CDC42) from synthetic liposomes by GST‐RHOGDI1 […]
liposome sedimentation assay. Data is representative of three independent experiments. P: […]
Liposome sedimentation assay
Liposomes were prepared by self-assembly of the lipids (500 μg) containing 20% (w/w) phosphatidylethanolamine, 45% (w/w) phosphatidylcholine, 20% (w/w) phosphatidylserine, 10% (w/w) cholesterol, and 5% (w/w) phosphatidylinositol 4,5-bisphosphate. […] The resulting pellet and supernatant fractions were collected and analyzed by immunoblotting. […]
The resulting samples were centrifuged at 140000 x g for 1 h at 4 °C. The upper liposome‐ containing phase (detected by fluorescent NDB‐PE) was collected and analyzed by […]

The target of a further experiment is T2, RHOGDI1 (Homo sapiens, UniProt P52565).
T2 construct: GST; made in house; host or cells: E. coli
The experiment in a line: Catch-and-release proteomics with lysine-reactive probe STPyne. Format: binding. The following applies: 100 µM compound, 30 µM STPyne, HEK293T lysate. Here is the method: Supplementary Table S11: Extracted list of STPyne PC cleaved RHOGDI peptides identified by catch-and-release proteomics. HEK293T lysate overexpressing RHOGDI-F was treated with 100 µM Rhonin or DMSO, followed by 30 µM STPyne. Asterisks indicate […]
(also on this page, place not known: S 11: catch -and-release RHOGDI -F DMS O, Modified lysine position Average ratio intensity STPyne-Rhonin-100 µM/DMSO SD ratio intensity STPyne-Rhonin-100 µM/DMSO 15) […]
(1 picture or pasted object on this page, not shown here)
Samples were acidified to a final concentration of 5% acetic acid, desalted over a self-packed C18 spin column, and dried. Peptides were resuspended in water with 0.1 % formic acid (FA) and analyzed using EASY-nLC 1200 nano-UHPLC coupled to Q Exactive HF-X Quadrupole-Orbitrap mass spectrometer (Thermo Scientific). The chromatography column consisted of a 45 cm long, 75 μm i.d. microcapillary capped by a 5 μm tip and packed with ReproSil -Pur 120 C18-AQ 2.4 μm beads (Dr. Maisch GmbH). LC solvents were 0.1 % FA in water (Buffer A) and 0.1 % FA in 90 % MeCN: 10 % water (Buffer B). […] The MS data was analyzed with MaxQuant[11] and searched against the human proteome (Uniprot), a common list of contaminants (included in MaxQuant) and the amino acid sequence of recombinant RHOGDI. […]

T2 sequence (P52565 whole entry): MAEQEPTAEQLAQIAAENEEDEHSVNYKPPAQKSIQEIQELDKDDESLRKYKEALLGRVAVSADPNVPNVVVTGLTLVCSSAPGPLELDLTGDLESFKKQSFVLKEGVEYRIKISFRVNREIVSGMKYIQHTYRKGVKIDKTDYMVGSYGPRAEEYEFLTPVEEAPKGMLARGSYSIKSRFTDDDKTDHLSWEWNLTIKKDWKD
T1 sequence (P52565 whole entry): as above

Regarding `COC(=O)C1(C(CC(=O)c2ccccc2)c2ccccc2)N=C(c2ccc(Br)cc2)C2C(=O)N(C)C(=O)C21` (centres unmarked) [7a], the “Inhibition of RHOGDI1-mediated extraction of CDC42 (in words)” value in experiment [1] is “inhibited”.

In the case of `COC(=O)C1(C(CC(=O)c2cccnc2)c2ccccc2)N=C(c2ccc(Br)cc2)C2C(=O)N(C)C(=O)C21` (centres unmarked) [7l], the “STPyne labeling of RHOGDI1 lysines in presence of compound (in words)” value on RHOGDI1 is “lysines 186 and 199 in RHOGDI1 were less efficiently labeled”.
